ChEMBL document CHEMBL3507680, “University of Dundee, Gates Library screen for HepG2 cell viability”

assay: Human HepG2 cell viability assay in 384 well format; format: toxicity, cell-based; parameters: dose 125 nL, time 70.5 hour; concentration not given beside the values; conditions: HepG2 cells, read-out: Inhibition

Row | SMILES | cytotoxicity at 70.5 h [%]
1 | COc1ccc(Cn2cc(C(=O)N(C)Cc3cnccn3)nn2)cc1 | -14.3
2 | c1ccc2c(N3CCCCC3)cnnc2c1 | -6.45
3 | CSc1ccc(NC(=O)NCC2CCCO2)cc1F (stereo not given) | 11.2
4 | Cc1nc(C2CCCN2CC(=O)N2CCCc3ccccc32)no1 (stereo not given) | -6.37
5 | CC(=O)N1CCC12CCN(Cc1ccco1)CC2 | 19.9
6 | O=C(CCCc1ccccn1)N1CCCC1c1noc(C2CC2)n1 (stereo not given) | -9.72
7 | NC(=O)Nc1ccc(C(=O)NCCn2cccc2)cc1 | -11.7
8 | Cc1ccc(C(=O)N2CCC(n3cc(CN)nn3)CC2)cc1F | -5.32
9 | Cc1ccc(Cl)c(NC(=O)NC2(C)CCOC2)c1 (stereo not given) | -5.5
10 | Cc1cnn(CC2CCCN2C(=O)c2ccccc2-n2cccn2)c1 (stereo not given) | -12.6
11 | COCCN(Cc1ccccn1)C(=O)CC1OCCc2ccsc21 (stereo not given) | -1.83
12 | COCCN(Cc1cnn(C)c1)C(=O)C1CCC(=O)N(C2CCCC2)C1 (stereo not given) | -15
13 | Cc1ccc(N2CCO[C@H]3CN(Cc4ccoc4)C[C@H]32)nn1 | 6.75
14 | CCCC(O)CN1CCC(=O)N(CC)Cc2cc3c(cc21)OCO3 (stereo not given) | -3.11
15 | O=C(CN1CC(c2nc(-c3ccco3)no2)C1)NCCc1ccccc1 | -11.2
16 | Cc1ccc2nc(NCCN3CCOCC3)n(C)c(=O)c2c1 | 0.444
17 | O=C(Cc1cccc(F)c1F)NS(=O)(=O)c1cncc(Cl)c1 | -2.5
18 | Cc1cc(CNC2(c3ccccc3)CCCCC2)on1 | -0.993
19 | N#Cc1cccc(C(=O)NC2CCc3c(ccc(=O)n3CC3CC3)C2)c1 (stereo not given) | -2.82
20 | Cc1nn(C)c(Cl)c1C1CCCN1C(=O)c1ccncc1 (stereo not given) | 0.652
21 | CCN(Cc1cnc(-c2ccccn2)nc1)C1CCS(=O)(=O)C1 (stereo not given) | 5
22 | CN(Cc1cc(Br)cn1C)C(=O)c1cccnc1 | -8.21
23 | O=c1ncn(-c2ccc(F)cc2)c2ncccc12 | -6.86

Row | SMILES | cytotoxicity at 70.5 h [%]
24 | O=C(NCc1nnc2n1CCC2)N(Cc1ccc(F)cc1)C1CC1 | -8.55
25 | CCc1cc(C(C)Nc2nc(-c3cccnc3)nc3c2CNC3)on1 (stereo not given) | -5.83
26 | O=C1CSC(c2ccncc2)c2c[nH]nc2N1 (stereo not given) | -8.06
27 | O=C(c1ccoc1)N1CCC2(CC1)COC(COCc1ccccn1)C2 (stereo not given) | 10.2
28 | CN1C[C@@H]2CN(C(=O)C3CCOC3)C[C@@H]2C1=O (stereo not given in full) | 9.81
29 | Cc1n[nH]cc1C(=O)NCc1cccnc1N1CCc2ccccc2C1 | -3.05
30 | COc1ccc2cc(C(=O)N3CCCCC3Cn3cccn3)[nH]c2c1 (stereo not given) | -3.69
31 | CN(Cc1nccn1CC(F)(F)F)C(=O)c1cccc(N(C)C)c1 | 0.768
32 | CC(=O)Cn1nc(-c2ccccc2F)ccc1=O | -3.88
33 | C[C@@H]1CN(c2cc(N3CCC(O)CC3)ncn2)C[C@@]1(O)C1CCC1 | 35.1
34 | COc1cccc(OCC2CCCN(Cc3ccncc3)C2)c1 (stereo not given) | -10.6
35 | CN1C(=O)[C@H]2CC[C@@H]1CN(S(=O)(=O)c1ccc(Cl)cc1Cl)C2 | -10.4
36 | Cc1nccn1-c1ccc(=O)n(CCNC(=O)c2c(F)cccc2Cl)n1 | -6.16
37 | CCCN1CCN(Cc2cccc(OC)c2)[C@H]2CS(=O)(=O)C[C@H]21 | 25.9
38 | O=S1(=O)CCN(c2nc(C3CC3)ns2)CC1 | -5.98
39 | Cn1cc(N2C(=O)CC[C@@H]3[C@H]2CCN3Cc2cccc(C#N)c2)cn1 | -13.2
40 | CCOc1ccnc(NCCc2nc(C)cc(=O)[nH]2)n1 | -2.38
41 | Cc1csc(N2CCCN(C(=O)Cc3cccs3)CC2)n1 | -5.57
42 | Cc1ccc(C(=O)N(CC2CCCO2)c2ccncc2)o1 (stereo not given) | -8.12
43 | Cn1cc(CNCC2(O)CCCN(Cc3ccc(F)c(F)c3)C2=O)cn1 (stereo not given) | -3.67
44 | Cc1nc[nH]c1CN1CCC(CNC(=O)c2cccc3cnccc23)C1 (stereo not given) | -7.78
45 | O=C(C1CCOC1)N1CCN(Cc2ccncc2)c2ncccc2C1 (stereo not given) | -9.12
46 | Cn1cc(CNc2cnn(CCO)c2)c(-c2ccncc2)n1 | -5.07

Row | SMILES | cytotoxicity at 70.5 h [%]
47 | OCCN(CCO)Cc1ccc(Br)c2cccnc12 | -1.86
48 | CCC(C)NC(=O)Cn1c(Nc2cc(C)cc(C)c2)nc(C)cc1=O (stereo not given) | 0.214
49 | COc1ccc(CCNC(=O)NC2CCCC2)cc1OC | -12.5
50 | O=C(NC1CCN(C2CC2)CC1)c1cn(-c2ccc(Cl)cc2)nn1 | -7.11
51 | Cc1ccc(CNC(=O)C2CCN(C(=O)c3ccccc3)CC2)n1C | -8.06
52 | Cc1nc(CC(=O)N2CCCC2c2nc(-c3ccccc3)no2)cs1 (stereo not given) | -3.06
53 | COc1ncccc1CN1CCC2(CC1)COCCN2C | -8.7
54 | CN1CCC(Cc2cncc(-c3ccccc3C(=O)O)n2)C1 (stereo not given) | -6.47
55 | O=C(Nc1ccccc1F)C1=NN(c2ccccc2)C(=O)CN1 | -4.94
56 | Nc1nc2c(c(NC(=O)Nc3ccc(Cl)c(Cl)c3)n1)CCCC2 | 9.83
57 | CCCSc1nc(O)c(CC)c(=O)n1-c1ccccc1 | -6.46
58 | CCCN(CCC)C(=O)Cn1c(SC)nc2ccsc2c1=O | -0.333
59 | CC1CCCN(S(=O)(=O)N2CCOC3(CCCC3)C2)C1 (stereo not given) | 10.1
60 | Cc1cncc(C(=O)N[C@@H]2CC[C@@H](N3CCOCC3)[C@@H]2O)c1 | -8.5
61 | c1ccc(CCCN2CCN(c3ccc4nncn4n3)CC2)cc1 | 0.863
62 | COc1ccc(CNc2c(C)nn(C(C)C)c2C)cc1 | 13.9
63 | COc1ccc(C2=CCN(C(=O)C3CCS(=O)(=O)C3)CC2)cc1 (stereo not given) | 19.4
64 | Cc1cc(NCc2cccc(C#N)c2)ccc1C(=O)N(C)C | -9.77
65 | Cc1nc(CN2C(=O)C[C@H]3[C@H]2CCN3CC2CCOC2)cs1 (stereo not given in full) | 2.38
66 | NS(=O)(=O)c1cnc(NCC2(c3ccccc3)CCC2)s1 | -2.17
67 | NC(=O)Nc1cccc(CNC(=O)CCCOCc2ccccc2)c1 | 2.63
68 | CCn1nccc1CNC(=O)CCC1CCCC1 | 18.7
69 | CC(NCc1cc(O)c2cccc(F)c2n1)c1ccccc1O (stereo not given) | -10.4

Row | SMILES | cytotoxicity at 70.5 h [%]
70 | O=C(c1cccc(S(=O)(=O)NC[C@@H]2C[C@H](F)CN2)c1)N1CCCCC1 | 4.39
71 | CCCc1cc(C(=O)NCCN2CCCS2(=O)=O)[nH]n1 | -7.48
72 | COc1cccc(CNc2cc(N3CCCC3CO)ncn2)n1 (stereo not given) | -0.345
73 | COc1ccc(-c2cc(CC3(NCc4ccc(C)o4)COC3)no2)cc1 | 6.13
74 | CCN1CCN(C2CCN(Cc3c(C)noc3C)CC2)C1=O | 25.5
75 | CNc1cc(CCNC(=O)C2CCCC2)nc(-c2ccccn2)n1 | -8.09
76 | CCOCCN1CCN(Cc2cccc(C(=O)N(C)C)c2)CC1 | 40.4
77 | CCN(c1cccc(F)c1)S(=O)(=O)c1cc(C(=O)O)cc2c1CCC2 | -9.22
78 | CCNC(=O)C1CCN(c2cc(CC)nc3ccnn23)C1 (stereo not given) | 15.1
79 | CC(NCc1ccc(F)cc1)c1ccc(S(C)(=O)=O)cc1 (stereo not given) | -7.76
80 | Cc1ncsc1CCN(C)C(=O)c1ccc(CN2CCCCC2)cc1 | 0.585
81 | Cc1cncc(C(=O)N2CCc3ncc(Cn4cccn4)n3CC2)c1 | 22.9
82 | CN(CCN1CCCCCC1)Cc1cnc(N)nc1 | -6
83 | O=C(c1cc(Cl)c2c(c1)OCO2)N1CCCC(n2cncn2)C1 (stereo not given) | -4.61
84 | Cc1ccc(N2CCC3(CCN(C(=O)c4ccsc4)CC3)CC2)nn1 | -7.09
85 | CC(C)N(C)CCCNC(=O)c1cnn(C(C)(C)C)c1C(F)(F)F | -7.79
86 | CCOCCNC(=O)c1cccc(S(=O)(=O)NC[C@@H]2C[C@H](F)CN2)c1 | 31.3
87 | CS(=O)(=O)N1CCCC(Cc2ccnc3ccncc23)CC1 (stereo not given) | -0.73
88 | CCc1nc(C2CCCN2CCc2ccccn2)no1 (stereo not given) | 24.9
89 | CN1CCCC(N2CCN(c3cc(C(F)(F)F)ccn3)CC2)C1 (stereo not given) | -5.61
90 | CCN1CC(C(=O)NCc2nn(CC)c3ccccc23)CCC1=O (stereo not given) | 10.8
91 | O=C(NCCn1ccnc1)c1ccn(-c2ccccc2)n1 | -1.21
92 | O=C(Nc1ccc(F)cc1F)N(CCC(F)(F)F)C[C@H](O)CO | -12.9

Row | SMILES | cytotoxicity at 70.5 h [%]
93 | COc1cccc(CC(=O)N2CCC3(CC2)OCCCC3O)c1OC (stereo not given) | -7.1
94 | O=C(c1ccc(-c2cnco2)cc1)N1CCC(Nc2cccnn2)CC1 | -4.21
95 | CC(C)c1nc(CN2CCCC2Cn2cccn2)no1 (stereo not given) | -2.93
96 | Cc1cc(Nc2ccc3c(c2)CC(=O)N3)nc(C2CC2)n1 | -9.05
97 | CC(c1ccc(-n2cncn2)cc1)N(C)Cc1ccccn1 (stereo not given) | -7.98
98 | COCc1cc(N(C)Cc2cnccn2)nc(C(C)(C)C)n1 | -12.2
99 | O=C(O)c1cnc(N2CCC(c3nccn3CC3CC3)CC2)c(Cl)c1 | -8.03
100 | CC(c1ccc(C(F)(F)F)cc1)N1CCN(CCS(C)(=O)=O)CC1 (stereo not given) | -1.96
101 | Cc1cncc(C(=O)N2CCC(Cn3cc(-c4ccsc4)nn3)CC2)c1 | -16.9
102 | Cc1nnc(NCCC(=O)N(C)Cc2ccccc2)c(C#N)c1C | 3.39
103 | Cc1ncncc1C(=O)N1CCCC1c1c(C)nn(C)c1Cl (stereo not given) | -10.6
104 | COCCN1C(=O)CO[C@H]2CN(CCCc3ccccc3)C[C@H]21 | -1.96
105 | Cc1nc(CN2CCCC2c2ccsc2)nc2ccccc12 (stereo not given) | 4.71
106 | O=C(c1ccc(N2CCOCC2)nc1)N1CCCC(n2ccnc2)C1 (stereo not given) | -3.02
107 | COc1cc(N2CCC3(CCN(C(=O)c4cccnc4)CC3)C2)ncn1 | -6.37
108 | CC(C)Nc1nc2c(c(N(C)C)n1)CCN(C(=O)c1cc[nH]n1)CC2 | -10.4
109 | FC(F)(F)c1cccc(OC2CCN(Cc3ncc[nH]3)CC2)c1 | -0.255
110 | O=C(c1cccnc1-n1cncn1)N1CCN(CC(F)(F)F)CC1 | -0.957
111 | CN1CCCN(c2cnn(Cc3ccncc3)c(=O)c2)CC1 | -9.95
112 | CO[C@@H]1CO[C@@]2(CCCN(C(=O)C3CC=CC3)C2)C1 | -1.96
113 | CN(C)CCN1CC2(CCCN(c3ccc(Cl)cn3)C2)CCC1=O (stereo not given) | 3.01
114 | COc1cccc(CC(C)NC(=O)NC(C)C)c1 (stereo not given) | -2.35
115 | CC(Cn1cccn1)NC(=O)N1CCN(Cc2ccco2)CC1 (stereo not given) | 0.805
